By solubility (kinetic) is commonly meant solubility judged after dilution from a stock solution rather than from solid. As a reminder, the pIC50 is the IC50 on a negative log10 scale, so that one unit is a factor of ten.

pIC50: −log10 of the molar value.

Data set [1] in a line: Kinetic solubility in phosphate buffered saline (HPLC). The data set is classed as physicochemical. The note with it: phosphate buffered saline (PBS), aqueous buffer, kinetic from dmso stock, 25° C., shaken 2 hours, from 10 mM DMSO stock. As to the method: The compounds were weighed in an appropriate amount and dissolved in DMSO to prepare a 10 mM stock solution. 30 μL of the stock solution was taken and 970 μL of phosphate buffered saline solution (PBS) was added thereto. The solution was shaken at 25° C. on a thermostatic mixer for 2 hours, and centrifuged at 12000 rpm for 10 minutes. The supernatant was taken, and the kinetic solubility of each compound in phosphate buffered saline solution (PBS) was determined by Waters Acquity Arc HPLC.

A further data set has as its target hERG channels (Homo sapiens, UniProt Q12809). The experiment in a line: hERG whole-cell patch clamp in HEK 293 cells stably expressing hERG. Format: cell-based. The note with it: HEK 293 stably expressing hERG, tail current. As to the method: The HEK 293 cell line (K1236) stably expressing hERG was purchased from Invitrogen. Cells were cultured in 85% DMEM, 10% dialyzed FBS, 0.1 mM NEAA, 25 mM HEPES, 100 U/mL penicillin-streptomycin, 5 μg/mL blasticidin and 400 μg/mL geneticin. Cells were split using TrypLE™ about three times a week, and maintained at a confluence of about 40% to about 80%. Before measurement, cells were cultured at a density of 5×10^5 in a 6 cm culture dish and induced with 1 μg/mL doxycycline for 48 hours.
Extracellular solution (mM): 132 NaCl, 4 KCl, […], 0.5 MgCl2, 11.1 glucose, 10 HEPES (pH 7.35 adjusted with NaOH);
Intercellular solution (mM): 140 KCl, 2 MgCl2, 10 EGTA, 10 HEPES, 5 MgATP (pH 7.35 adjusted with KOH).
The test compounds were formulated in DMSO to prepare a stock solution with a final concentration of 10 mM.
Then, the stock solution of each compound was diluted with DMSO in a 1:3 serial dilution to prepare five intermediate solutions with concentrations of 3, 1, 0.33, 0.12, 0.04 mM or 3.33, 1.11, 0.37, 0.12 mM, respectively.
Before testing, the final working solutions were prepared by diluting the intermediate solutions 1000 times with the extracellular solution. The concentration of DMSO in the working solutions was within a range around 0.1%.
The working solutions at five different concentrations of 3, 1, 0.33, 0.12 and 0.04 μM were used to determine the potential inhibition effect of the compounds on hERG channels and to fit concentration-response curves and calculate IC50.
The coverslip was removed from the cell culture dish and placed on a microscope stage.
A 10× objective was used to locate cells to be observed. An electrode tip was located under the microscope using the 10× objective by focusing above the plane of the cells. Once the tip was in focus, the electrode was advanced downward towards the cells under rough control of the manipulator, while the objective was moved so as to keep the tip in focus.
When the electrode was directly over a cell, the objective was switched to a 40× objective and fine control of the manipulator was used to enable to gradually approach the cell surface.
With gentle suction through a side port of an electrode holder, a giga-ohm seal was formed.
Cfast was used to eliminate the capacitive current consistent with the voltage step. Brief and strong suction was applied repeatedly until the membrane patch ruptured and the whole-cell configuration was obtained.
At this point, membrane potential was set to −60 mV in order to ensure that hERG channels were not open. Then, Cslow on the amplifier was used to remove the spikes of capacitive current.
Holding potential was set to −90 mV for 500 ms. Current was recorded at 20 kHz and filtering was carried out at 10 kHz. Leak current was tested at −80 mV for 500 ms.
The hERG current was elicited by depolarizing at +30 mV for 4.8 seconds, and then the voltage was restored to −50 mV for 5.2 seconds to remove the inactivation and observe the deactivating tail current. The maximum of tail current size was used to determine hERG current amplitude.
Current was recorded for 120 seconds to evaluate the current stability. Only stable cells with recording parameters above thresholds were used for drug administrations.
Firstly, vehicle control was applied to the cells to establish the baseline. […] The hERG current in the presence of the test compound was recorded for about 5 minutes to reach a steady state, and then 5 sweeps were captured. For dose-response testing, multiple compounds were applied to the cells cumulatively from low to high concentrations (multiple compounds were detected simultaneously). The positive control, Dofetilide at a concentration of 150 nM, was also applied to each cell post hERG current measurement at the highest concentration of the test compound, which was used as an internal low control for normalization of percentage inhibition. […]
(Block of hERG is tested as a sign of cardiac risk.)

Data set [2] can be described thus: UV-VIS absorption spectra (optical property test). Format: physicochemical. The note with it: 10 μM, DMSO solution; for Absorbance × 10^4: at maximum absorption peak. As to the method:
The UV-VIS absorption spectra of the compounds (10 μM, DMSO solution) were detected using Shimadzu UV2600 spectrophotometer, and the maximum absorption peak and absorbance of each compound were obtained.

Data set [3] can be described thus: MRC5 proliferation test (CellTiter-Glo). Format: cell-based. As to conditions: human, MRC5 cells (normal cells), 3 days incubation, read-out: MRC5 (IC50, nM), inhibitory effect on proliferation of normal cells. The source says:
• MRC5 (ATCC; Cat. No.: CCL-171)
• Culture medium EMEM (ATCC, 30-2003) • Fetal bovine serum (Gibco, 10091148) • Penicillin-streptomycin double antibody (Gibco, S110JV) • DPBS (Gibco, 14190-144) • CellTiter-Glo® assay kit (Promega, G7573) • Trypsin (0.25%) (Gibco, 25200-056) • DMSO (Sigma, D2650)
• Biosafety cabinet (AIRTECH, BSC-1300A II) • Automated cell counter (Life Technologies, countess II) • Multifunctional microplate reader (Biotek, H1FM) • Shaker (Hangzhou Allsheng Instruments Co., Ltd., OS-100) • XLFIT 5.3 (Shanghai Inforstack Co., Ltd.)
For this test method, the following experiment was performed in a biosafety cabinet with the specific steps as follows. • (1) Cells were seeded in a […] (in which the culture medium was EMEM). One day later, the previous culture medium EMEM was poured off, and 5 mL of DPBS was added to wash the cells. Then DPBS was pipetted and discarded. An appropriate amount of trypsin was then added. The plate was placed in a 5% CO2 cell incubator at 37° C. to digestion for about 2 to 5 minutes, and then taken out. New culture medium EMEM was added. The cells were pipetted up and down to resuspend evenly. The cells were then counted by an automated cell counter. • (2) Cells were seeded in columns 1 to 11 of a 96-well plate (Corning, Cat. No. 3610) at a density of 3000 cells per well in 100 μL of culture medium EMEM, and 100 μL of culture medium EMEM free of cells was added into column 12 of the wells. Then, the plate was placed in the 5% CO2 incubator at 37° C. for 24 hours. • (3) Next, the compound of the present invention was 2-fold serially diluted into 8 dose points starting at 10 μM. 10 μL of the serially diluted compound was pipetted and added to 100 μL of cells in columns 1 to 10, and 10 μL of the culture medium EMEM containing 2% DMSO was added to both columns 11 and 12. The plate was placed in the 5% CO2 incubator at 37° C. and incubated for 3 days (Note: column 11 was used as a MAX well with cells but without the compound; column 12 was used as a MIN well without both cell and compound). • (4) The cell viability detection reagent in the above CellTiter-Glo® assay kit was then added to the 96-well plate at 50 μL per well according to the instruction, and shaken on a shaker in dark for 5 to 10 minutes. The cell viability was then measured using a multifunctional microplate reader. Finally, the inhibition of the compound of the present invention on cell proliferation was plotted by XLFIT software, and the half inhibitory concentration, IC50 value of the compound of the present invention was calculated therefrom.
On the technique in general: In ATP-based viability assays light output follows the ATP content of the culture.

The next data set relates to RT112 tumor. The experiment in a line: Tumor/background ratio in subcutaneous RT112 tumor model mice. Format: in vivo. As to conditions: 2 mpk intraperitoneal, 48 hours after injection. The source says:
The subcutaneous tumor model mice inoculated with RT112 tumor were selected. Each compound was administrated at a dose of 2 mpk, and intraperitoneally injected.

The subject of data set [4] is human bladder cancer cell line UM-UC-3. The experiment in a line: In vitro imaging effect test with addition of BSP, UM-UC-3. The data set is classed as cell-based. The note with it: 250 μM BSP, compound 1-20 μM with surfactin 1:5, 30 minutes. The method, then:
UM-UC-3 (1.5×10^4/well) were cultured in EMEM medium (containing 10% fetal bovine serum (FBS) and 1% antibiotics (100 U/mL penicillin and 100 U/mL streptomycin)) and seeded in a 96-well plate in advance. The plate was cultured in a 5% CO2 cell culture incubator at 37° C. overnight. The following day, the culture medium was sucked away, and 250 μM of BSP was added to the test wells and preconditioned for 10 minutes, followed by addition of the culture medium containing an appropriate concentration (1-20 μM) of the compound and surfactin (the molar ratio of the test compound to the surfactin being 1:5) with or without 250 μM of BSP, and then incubated for 30 minutes. The cells were rinsed three times with PBS solution, and the near-infrared fluorescence intensity in the bladder cancer cells was observed using an integrated fluorescence microscopic imaging system from Keyence. The conditions for near-infrared photography were Ex=775/50 nm and Em=845/55 nm.

hERG channels, sequence (Q12809 whole entry): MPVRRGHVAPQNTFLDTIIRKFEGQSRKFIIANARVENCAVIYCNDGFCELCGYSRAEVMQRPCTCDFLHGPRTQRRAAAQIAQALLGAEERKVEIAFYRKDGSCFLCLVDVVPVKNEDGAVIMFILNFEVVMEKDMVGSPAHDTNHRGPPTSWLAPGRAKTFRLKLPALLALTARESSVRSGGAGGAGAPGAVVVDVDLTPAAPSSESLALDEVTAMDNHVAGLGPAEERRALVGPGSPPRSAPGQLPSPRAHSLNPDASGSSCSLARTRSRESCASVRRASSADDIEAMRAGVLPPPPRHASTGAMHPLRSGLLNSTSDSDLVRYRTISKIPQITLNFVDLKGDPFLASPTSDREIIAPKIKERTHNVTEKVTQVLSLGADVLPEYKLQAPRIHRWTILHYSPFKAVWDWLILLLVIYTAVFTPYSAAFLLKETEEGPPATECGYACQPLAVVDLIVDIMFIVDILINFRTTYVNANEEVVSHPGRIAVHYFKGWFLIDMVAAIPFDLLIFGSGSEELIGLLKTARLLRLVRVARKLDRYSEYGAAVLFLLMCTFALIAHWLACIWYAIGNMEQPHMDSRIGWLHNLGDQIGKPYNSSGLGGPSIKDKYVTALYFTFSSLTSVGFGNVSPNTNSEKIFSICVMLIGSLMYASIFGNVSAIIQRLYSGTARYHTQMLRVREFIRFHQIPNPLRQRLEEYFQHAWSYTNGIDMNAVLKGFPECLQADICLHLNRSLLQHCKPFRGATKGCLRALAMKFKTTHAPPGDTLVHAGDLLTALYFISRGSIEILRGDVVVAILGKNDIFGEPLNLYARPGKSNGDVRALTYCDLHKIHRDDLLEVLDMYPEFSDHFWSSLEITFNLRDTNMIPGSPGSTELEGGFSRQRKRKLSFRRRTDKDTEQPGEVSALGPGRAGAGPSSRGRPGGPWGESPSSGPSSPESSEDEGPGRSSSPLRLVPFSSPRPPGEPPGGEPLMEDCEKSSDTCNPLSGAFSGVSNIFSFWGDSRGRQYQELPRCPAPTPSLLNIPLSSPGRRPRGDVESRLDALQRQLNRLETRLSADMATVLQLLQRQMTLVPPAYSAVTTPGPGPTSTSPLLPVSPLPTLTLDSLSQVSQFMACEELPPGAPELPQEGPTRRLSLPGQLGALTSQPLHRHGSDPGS

Compound `CC[N+]1=C(/C=C/C2=C(Cl)C(=C/C=C3/N(CCCCCC(=O)Oc4ccccc4)c4ccccc4C3(C)C)/CCC2)C(C)(C)c2ccccc21.[Cl-]` [Comparative Example 1, 2-((E)-2-((E)-2-chloro-3-(2-((E)-3,3-dimethyl-1-(6-oxo-6-phenoxyhexyl)indolin-2-ylidene)ethenyl)cyclohex-1-en-1-yl)ethenyl)-1-ethyl-3,3-dimethyl-3H-indol-1-ium Chloride, reference compound] showed a kinetic solubility at 2 h in data set [1] of 5 µg/mL. The compound also had a pIC50 against hERG channels of over 6.92. Further, in data set [2], the Absorption peak is 794.5 nm and the “Absorbance × 10^4” value turned out to be 2.16. The IC50 at 3 days in data set [3] was found to be 2700 nM. For the same compound, the Tumor/background ratio in the data set with RT112 tumor is recorded as 2.4.
As to `CC[N+]1=C(/C=C/C2=C(Cl)C(=C/C=C3/N(Cc4ccc(C(=O)Oc5ccccc5)cc4)c4ccccc4C3(C)C)/CCC2)C(C)(C)c2ccccc21` [Example 6, 2-((E)-2-((E)-2-chloro-3-(2-((E)-3,3-dimethyl-1-(4-(phenoxycarbonyl)bromo)indolin-2-ylidene)ethenyl)cyclohex-1-en-1-yl)ethenyl)-1-ethyl-3,3-dimethyl-3H-indol-1-ium Chloride], in data set [2], the Absorption peak came to 795 nm and the “Absorbance × 10^4” value worked out at 1.8. In addition, the “Uptake by UM-UC-3 with or without BSP” value in data set [4] was “may be weakened or enhanced by BSP”.
In data set [1], `COCCOCCN1/C(=C/C=C2\CCCC(/C=C/C3=[N+](CCOCCOCCC(=O)O)c4ccccc4C3(C)C)=C2Cl)C(C)(C)c2ccccc21` [Example 68, 1-(2-(2-(2-carboxyethoxy)ethoxy)ethyl)-2-((E)-2-((E)-2-chloro-3-(2-((E)-1-(2-(2-methoxyethoxy)ethyl)-3,3-dimethylindolin-2-ylidene)ethenyl)cyclohex-1-en-1-yl)ethenyl)-3,3-dimethyl-3H-indol-1-ium 2,2,2-trifluoroacetate] displayed a kinetic solubility at 2 h of over 250 µg/mL. For the same compound, on hERG channels, the pIC50 was 6.05. In data set [2], the Absorption peak was 796 nm and the “Absorbance × 10^4” value was found to be 2.74. In data set [3], the IC50 at 3 days was over 10000 nM. Moreover, in the data set with RT112 tumor, the Tumor/background ratio is on record as 2.5.
`COCCOCCOCCN1/C(=C/C=C2\CCCC(/C=C/C3=[N+](CCOCCOCCC(=O)O)c4ccccc4C3(C)C)=C2Cl)C(C)(C)c2ccccc21` [Example 70] came in with a kinetic solubility at 2 h in data set [1] of over 250 µg/mL. This compound showed a pIC50 against hERG channels of 6.25. For the same compound, in data set [2], the Absorption peak was 796.5 nm and the “Absorbance × 10^4” value was 2.09. In addition, the IC50 at 3 days in data set [3] is over 10000 nM. Moreover, the Tumor/background ratio with RT112 tumor is 2.7.
Turning to `COCCOCCOCCOCCN1/C(=C/C=C2\CCCC(/C=C/C3=[N+](CCOCCOCCC(=O)O)c4ccccc4C3(C)C)=C2Cl)C(C)(C)c2ccccc21` [Example 73, 1-(2-(2-(2-carboxyethoxy)ethoxy)ethyl)-2-((E)-2-((E)-2-chloro-3-(2-((E)-3,3-dimethyl-1-(2,5,8,11-tetraoxatridecan-13-yl)indolin-2-ylidene)ethenyl)cyclohex-1-en-1-yl)ethenyl)-3,3-dimethyl-3H-indol-1-ium Chloride], the solubility (kinetic) at 2 h in data set [1] was over 250 µg/mL. In addition, on hERG channels, the negative logarithm of the IC50 (pIC50) was 5.78. For the same compound, in data set [2], the Absorption peak is reported as 796.5 nm and the “Absorbance × 10^4” value was determined as 2.15. Moreover, the IC50 at 3 days in data set [3] is over 10000 nM. Also, the Tumor/background ratio in the data set on RT112 tumor is 2.7.
In data set [1], `CN(C)C1CC(/C=C/C2=[N+](C)c3ccccc3C2(C)C)=C(Cl)C(=C/C=C2/N(CCCCCC(=O)O)c3ccccc3C2(C)C)/C1` (stereo not drawn) [Example 87] showed a kinetic solubility at 2 h of 38 µg/mL. Also, the negative-log IC50 (pIC50) against hERG channels was 5.85. In data set [2], the Absorption peak was determined as 785 nm and the “Absorbance × 10^4” value was determined as 1.91. In addition, the IC50 at 3 days in data set [3] is over 10000 nM. For the same compound, the Tumor/background ratio in the data set on RT112 tumor came to 3.3.
For the compound `C[N+]1=C(/C=C/C2=C(Cl)C(=C/C=C3/N(CCOCCC(=O)Oc4ccccc4)c4ccccc4C3(C)C)/CCC2)C(C)(C)c2ccccc21.[Cl-]` [Example 95], in data set [1], the solubility (kinetic) at 2 h amounted to 99 µg/mL. At hERG channels, this compound had a negative-log IC50 (pIC50) of 6.01. Moreover, in data set [2], the Absorption peak turned out to be 793.5 nm and the “Absorbance × 10^4” value came out at 2.41. Further, the IC50 at 3 days in data set [3] was over 10000 nM. In the data set with RT112 tumor, the Tumor/background ratio is 2.8.
